Molecules are shown by their SMILES. Where two headings read alike, the source gives them in different places.

The subject of data set [1] is RAW 264.7 murine macrophage cell line. The experiment in a line: Osteoclast differentiation (TRAP staining, qRT-PCR) in RAW 264.7 cells. The class given is cell-based, mouse. Here is the method:
To address the specificity of DIPQUO for stimulating an osteogenic versus osteoclastic program, the RAW 264.7 murine macrophage cell line was assayed for osteoclast differentiation by staining for tartrate-resistant acid phosphatase (TRAP) to distinguish multinucleated osteoclasts from macrophages. […] Thus, DIPQUO appears to be primarily supportive of osteogenesis.
The RAW 264.7 macrophage cell line was purchased from ATCC and maintained in DMEM with 10% FBS. Cells were treated with 10 μM DIPQUO or 50 ng/ml RANKL (Sigma) for 4 days. Cells were fixed in 70% acetone/10% formaldehyde/20% citrate and TRAP staining was achieved using the Leukocyte Acid Phosphatase kit (Sigma 387A-1KT).
For quantitative RT-PCR analysis of gene expression in C2C12 cultures, cells were treated for 2 days with 10 μM DIPQUO and harvested into Trizol reagent (Invitrogen). One microgram of RNA was reverse transcribed using the VILO-RT kit (Invitrogen) to generate cDNA, which was diluted 1:25 in RNase-free H2O for qPCR with Sybr green using the Roche 480 II LightCycler and the 2^−ΔΔCT method (Livak and Schmittgen, 2001). For analysis of osteoclast gene expression, RAW 264.7 cells were treated with DMSO, 50 ng/ml RANKL, or 10 μM DIPQUO for 4 days, then harvested into Trizol reagent and processed as above. Mouse qPCR primers are as follows. Runx2: F([…]) (SEQ ID NO:1); R([…]) (SEQ ID NO:2); Dlx5: F([…]) (SEQ ID NO:3); R([…]) (SEQ ID NO:4); Osterix: F([…]) (SEQ ID NO:5); R([…]) (SEQ ID NO:6); ALP: F([…]) (SEQ ID NO:7); R([…]) (SEQ ID NO:8); Osteocalcin: F([…]) (SEQ ID NO:9); R([…]) (SEQ ID NO:10); Osteoactivin: F([…]) (SEQ ID NO:11); R([…]) (SEQ ID NO:12); CTSK: F([…]) (SEQ ID NO:13); R([…]) (SEQ ID NO:14); MMP9: F([…]) (SEQ ID NO:15); R([…]) (SEQ ID NO:16); Gapdh F([…]) (SEQ ID NO:17); R([…]) (SEQ ID NO:18). RNA-seq studies were carried out with the assistance of the Weill Cornell Genomics Core Facility, using the Illumina HiSeq4000 next-generation sequencer to generate reads from cDNA libraries generated from three biological replicates of day 2 DMSO- or DIPQUO-treated C2C12 cells. […]
For orientation: Quantitative PCR measures a nucleic acid by following its amplification.

The subject of the next data set is p38-α. The experiment in a line: Isoform-specific immunoprecipitation, p38-α activity in C2C12 cells. Particulars: C2C12, 10 μM DIPQUO. It is filed as cell-based, mouse. An excerpt:
There are four separate p38 isoforms: α, β, γ, and δ. The respective roles of the α and β isoforms in bone differentiation have been dissected to the extent that p38-β is known to be involved specifically in skeletogenesis (Greenblatt et al., 2010), while p38-α has roles that are both wide-ranging and highly specific, for instance in dentition (Greenblatt et al., 2015). Accordingly, we used small interfering RNA-mediated knockdown to probe the specificity of DIPQUO to block the activity of one or the other isoform (FIG. 6E). […] To confirm the biological significance of this observation, the α and β isoforms were immunoprecipitated from C2C12 cells and analyzed for relative activity levels.

Another data set relates to C2C12 cells. The data set is described as follows: C2C12 culture morphology and survival under treatment. It is filed as cell-based, mouse. Also on record: effect of continued treatment on C2C12 culture: dose or concentration left out as unconfirmed.
Data set [2] relates to alkaline phosphatase (ALP). The experiment in a line: cells. Particulars: Mus musculus; for activation at 10 µM: C2C12, 96 h.
Text: To identify small-molecule activators of osteoblast differentiation, we measured ALP activity using a fluorescent emission assay as a reporter for enzymatic digestion of ALP substrate in lysates derived from C2C12 myoblasts. […] Therefore, before screening, the assay was calibrated using recombinant human BMP4 protein as a positive control. Compounds were robotically deposited onto 384-well plates and then overlaid by C2C12 cells for a 4-day culture period, followed by lysis and fluorescent substrate assays (FIG. 1A; Table 1). To ensure uniformity, C2C12 cells were maintained in normal culture medium containing 10% fetal bovine serum, and lysis and substrate addition achieved using a microplate multidrop device. The primary screen (Table 2) encompassed greater than 47,000 small molecules tested at a final concentration of 10 μM.
For the primary screen, library compounds were distributed onto 384-well microplates (Greiner Bio-One 781091) at a final concentration of 10 μM in culture medium using a Perkin Elmer Janus automated workstation and WinPrep Version 4.8.3.315. Positive (rhBMP4, 1 ng/ml, R&D Systems) and negative controls (DMSO, 0.2%) were manually added to each plate by multichannel pipet. C2C12 cells were seeded onto compounds and controls at a density of 2000/well using a Thermo Multidrop Combi reagent dispenser and cultured for 4 days at 37° C., 5% CO2. Culture medium was aspirated using a BioTek EL406 plate washer and cells were lysed in RIPA buffer (Millipore 20-188) at ambient temperature for 10 minutes. 10 μl fluorescent alkaline phosphatase substrate (AttoPhos, Promega S1000) was added to lysates and incubated an additional 10 minutes before measuring the fluorescence (Excitation 450 nm/Emission 580 nm) on a BioTek Synergy Neo2 stacking microplate reader. Plates were processed and relative fluorescence raw values measured in stacks of 10-20. The data were processed using Collaborative Drug Discovery web-based software (CDD Vault) to determine Z score calculated on DMSO control wells and percent activation normalized against positive and negative controls (NPA). Cherry-picked hit candidates were re-tested in concentration response experiments, from which 4 candidates were chosen and purchased for further testing from either ChemBridge or Enamine, based on availability.
We also purchased a library of 154 structural chemical analogs assembled by ChemBridge Corp. from available screening library compounds.

Take `Cc1cc(C)c2[nH]c(=O)c(-c3[nH]cnc3-c3ccccc3)cc2c1` [RU-0226606, 6,8-dimethyl-3-(4-phenyl-1H-imidazol-5-yl)quinolin-2(1H)-one]: the “expression of CTSK and MMP9 (qRT-PCR)” value in data set [1] (RAW 264.7, 10 μM, 4 days) is recorded as “upregulated, albeit to a lower level compared with RANKL induction”. Also, the “TRAP staining of multinucleated osteoclasts” value in data set [1] (RAW 264.7, 4 days, DIPQUO 10 μM, RANKL 50 ng/ml) is given as “comparatively few TRAP-positive cells”. The “p38-α isoform activity after immunoprecipitation” value with p38-α is on record as “suppressed”. Besides, the cellular morphology entry with C2C12 cells (C2C12) is reported as “rapid rearrangement of cellular architecture from fibroblast-like to a cuboidal phenotype”. The “effect of continued treatment on C2C12 culture” value with C2C12 cells (continued treatment, partially rescued by IGF-1) was “attrition of the C2C12 culture”. Also, the EC50 was determined as 9.3 µM in data set [2] (C2C12); 8.6 µM in data set [2] (C2C12, read-out: Measured EC50); 6.27 µM in data set [2] (C2C12, read-out: half maximal effective concentration in C2C12 cells). Further, the activation at 10 µM was 100% in data set [2] and 8.78% in data set [2] (read-out: NPA Score Threshold ≥ 5.0 (normalized percent activation)).
